Data reported in ChEMBL document CHEMBL3875185, “Structure-anticonvulsant activity studies in the group of (E)-N-cinnamoyl aminoalkanols derivatives monosubstituted in phenyl ring with 4-Cl, 4-CH3 or 2-CH3” (Bioorg Med Chem, 2017).

What was measured:
[1] = system: Mus musculus; assay: Neurotoxicity in mouse assessed as induction of motor impairment at 30 mg/kg, ip measured at 0.5 hrs post dose by rotarod method; type: toxicity, organism-based; conditions: in vivo
[2] = system: Rattus norvegicus; assay: Neurotoxicity in ip dosed Sprague-Dawley rat assessed as behavioral change by measuring time to peak effect; type: toxicity, organism-based; conditions: in vivo
[3] = target: Cannabinoid receptor 1 (Homo sapiens) (UniProt P21554); assay: Displacement of [3H]CP 55940 from human recombinant CB1 receptor expressed in CHO cells at 100 uM measured after 120 mins by scintillation counting method relative to control; type: cell-based
[4] = system: Mus musculus; assay: Anticonvulsant activity in ip dosed 6-Hz induced seizure mouse model assessed as restoration of normal activity within 10 secs from stimulation by measuring time to peak effect at 44 mA; type: functional
[5] = target: Delta-type opioid receptor (Homo sapiens) (UniProt P41143); assay: Displacement of [3H]DADLE from human recombinant delta opioid receptor expressed in CHO cells at 100 uM measured after 120 mins by scintillation counting method relative to control; type: cell-based
[6] = system: Rattus norvegicus; assay: Neurotoxicity in Sprague-Dawley rat assessed as behavioral change at 30 mg/kg, po measured at 2 hrs post dose; type: toxicity, organism-based; conditions: in vivo
[7] = target: T1, Cholecystokinin receptor type A (Homo sapiens) (UniProt P32238); assay: Displacement of [125I]CCK-8s from human recombinant CCK1 receptor expressed in CHO cells at 100 uM measured after 60 mins by scintillation counting method relative to control; type: cell-based
T1 sequence (whole entry): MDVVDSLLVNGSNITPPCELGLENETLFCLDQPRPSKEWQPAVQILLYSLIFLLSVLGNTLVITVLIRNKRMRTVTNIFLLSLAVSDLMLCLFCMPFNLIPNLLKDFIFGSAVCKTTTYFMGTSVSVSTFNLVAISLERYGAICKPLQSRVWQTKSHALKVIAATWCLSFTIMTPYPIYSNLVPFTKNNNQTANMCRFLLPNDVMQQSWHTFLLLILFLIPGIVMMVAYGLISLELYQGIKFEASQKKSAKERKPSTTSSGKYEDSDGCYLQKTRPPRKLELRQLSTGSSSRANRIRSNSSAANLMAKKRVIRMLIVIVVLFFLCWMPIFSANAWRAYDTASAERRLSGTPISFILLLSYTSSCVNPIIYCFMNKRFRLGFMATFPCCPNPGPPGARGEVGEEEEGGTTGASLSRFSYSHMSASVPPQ

[8] = system: Mus musculus; assay: Anticonvulsant activity in ip dosed pentylenetetrazole induced seizure mouse model assessed as no observable episode of clonic convulsion of at least 5 secs; type: functional
[9] = Protection index, ratio of TD50 for neurotoxicity in ip dosed mouse to ED50 for ip dosed 6-Hz induced seizure mouse model at 32 mA; type: toxicity, organism-based; conditions: in vivo, read-out: Ratio TD50/ED50
[10] = system: Mus musculus; assay: Neurotoxicity in mouse assessed as induction of motor impairment at 30 mg/kg, ip measured at 4 hrs post dose by rotarod method; type: toxicity, organism-based; conditions: in vivo
[11] = target: Muscarinic acetylcholine receptor M3 (Homo sapiens) (UniProt P20309); assay: Displacement of [3H]4-DAMP from human recombinant M3 receptor expressed in CHO cells at 100 uM measured after 60 mins by scintillation counting method relative to control; type: cell-based
[12] = target: Prostaglandin E2 receptor EP2 subtype (Homo sapiens) (UniProt P43116); assay: Displacement of [3H]PGE2 from human recombinant EP2 receptor expressed in HEK293 cells at 100 uM measured after 120 mins by scintillation counting method relative to control; type: cell-based
[13] = target: T2, Endothelin receptor type B (Homo sapiens) (UniProt P24530); assay: Displacement of [125I]endothelin-1 from human recombinant ETB receptor expressed in CHO cells at 100 uM measured after 120 mins by scintillation counting method relative to control; type: cell-based
T2 sequence (whole entry): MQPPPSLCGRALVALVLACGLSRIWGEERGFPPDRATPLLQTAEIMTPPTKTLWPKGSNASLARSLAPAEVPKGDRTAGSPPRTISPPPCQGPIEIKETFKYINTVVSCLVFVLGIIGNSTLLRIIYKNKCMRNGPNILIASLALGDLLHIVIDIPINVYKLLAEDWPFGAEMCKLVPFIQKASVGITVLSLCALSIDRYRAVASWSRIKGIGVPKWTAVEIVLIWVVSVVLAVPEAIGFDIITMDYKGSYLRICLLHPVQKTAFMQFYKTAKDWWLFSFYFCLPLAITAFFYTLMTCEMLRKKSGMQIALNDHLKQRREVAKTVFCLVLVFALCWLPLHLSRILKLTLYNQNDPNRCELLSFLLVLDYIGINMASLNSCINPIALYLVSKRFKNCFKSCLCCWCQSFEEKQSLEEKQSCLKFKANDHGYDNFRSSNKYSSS

[14] = target: 5-hydroxytryptamine receptor 2A (Homo sapiens) (UniProt P28223); assay: Displacement of [3H]ketanserin from human recombinant 5HT2A receptor expressed in HEK293 cells at 100 uM measured after 60 mins by scintillation counting method relative to control; type: cell-based
[15] = target: T3, 5-hydroxytryptamine receptor 2C (Homo sapiens) (UniProt P28335); assay: Displacement of [3H]mesulergine from human recombinant 5HT2C receptor expressed in HEK293 cells at 100 uM measured after 120 mins by scintillation counting method relative to control; type: cell-based
T3 sequence (whole entry): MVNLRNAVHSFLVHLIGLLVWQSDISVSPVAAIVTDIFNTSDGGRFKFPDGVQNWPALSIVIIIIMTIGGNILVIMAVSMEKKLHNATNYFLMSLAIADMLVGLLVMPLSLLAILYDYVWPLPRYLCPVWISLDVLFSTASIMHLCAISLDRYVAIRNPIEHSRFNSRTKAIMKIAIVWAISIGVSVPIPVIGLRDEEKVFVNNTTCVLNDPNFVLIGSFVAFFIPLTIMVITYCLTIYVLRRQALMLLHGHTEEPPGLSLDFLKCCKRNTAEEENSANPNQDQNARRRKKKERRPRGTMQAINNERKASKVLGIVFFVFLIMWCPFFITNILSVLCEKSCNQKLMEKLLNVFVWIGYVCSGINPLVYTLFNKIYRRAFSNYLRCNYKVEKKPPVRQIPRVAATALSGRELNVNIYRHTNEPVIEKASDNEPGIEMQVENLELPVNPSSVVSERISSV

[16] = Protection index, ratio of TD50 for neurotoxicity in po dosed Sprague-Dawley rat model to ED50 for po dosed maximal electroshock induced seizure Sprague-Dawley rat model; type: toxicity, organism-based; conditions: in vivo, read-out: Ratio TD50/ED50
[17] = Protection index, ratio of TD50 for neurotoxicity in ip dosed mouse to ED50 for ip dosed pentylenetetrazole induced seizure mouse model; type: toxicity, organism-based; conditions: in vivo, read-out: Ratio TD50/ED50
[18] = system: Rattus norvegicus; assay: Neurotoxicity in Sprague-Dawley rat assessed as behavioral change at 30 mg/kg, po measured at […] post dose; type: toxicity, organism-based; conditions: in vivo
[19] = system: Rattus norvegicus; assay: Neurotoxicity in Sprague-Dawley rat assessed as behavioral change at 30 mg/kg, po measured at 4 hrs post dose; type: toxicity, organism-based; conditions: in vivo
[20] = system: Rattus norvegicus; assay: Anticonvulsant activity in ip dosed pentylenetetrazole induced seizure Sprague-Dawley rat model assessed as no observable episode of clonic convulsion of at least 5 secs; type: functional
[21] = species: Rattus norvegicus; assay: Displacement of [3H]batrachotoxinin from rat cerebral cortex sodium channel site 2 at 100 uM measured after 60 mins by scintillation counting method relative to control

Sequence of Prostaglandin E2 receptor EP2 subtype (Homo sapiens) (P43116 whole entry): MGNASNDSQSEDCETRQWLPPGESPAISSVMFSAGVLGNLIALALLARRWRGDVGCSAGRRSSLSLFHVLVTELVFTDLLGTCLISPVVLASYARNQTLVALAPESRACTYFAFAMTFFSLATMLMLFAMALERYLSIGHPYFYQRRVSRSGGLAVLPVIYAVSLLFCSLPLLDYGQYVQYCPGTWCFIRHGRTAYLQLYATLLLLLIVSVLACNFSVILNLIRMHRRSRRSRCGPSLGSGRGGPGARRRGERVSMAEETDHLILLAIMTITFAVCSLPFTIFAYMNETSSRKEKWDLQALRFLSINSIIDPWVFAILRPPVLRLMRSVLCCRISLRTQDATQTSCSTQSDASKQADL
Sequence of Delta-type opioid receptor (Homo sapiens) (P41143 whole entry): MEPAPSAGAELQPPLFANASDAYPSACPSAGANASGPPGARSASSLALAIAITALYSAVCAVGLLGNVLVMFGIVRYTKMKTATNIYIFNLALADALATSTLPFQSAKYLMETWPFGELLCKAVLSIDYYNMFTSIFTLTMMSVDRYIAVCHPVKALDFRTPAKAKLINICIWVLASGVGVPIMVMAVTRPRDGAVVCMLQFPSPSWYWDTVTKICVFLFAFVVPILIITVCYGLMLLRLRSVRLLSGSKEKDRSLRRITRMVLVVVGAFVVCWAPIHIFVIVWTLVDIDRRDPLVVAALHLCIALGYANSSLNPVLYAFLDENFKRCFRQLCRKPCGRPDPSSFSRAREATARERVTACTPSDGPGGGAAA
Sequence of Cannabinoid receptor 1 (Homo sapiens) (P21554 whole entry): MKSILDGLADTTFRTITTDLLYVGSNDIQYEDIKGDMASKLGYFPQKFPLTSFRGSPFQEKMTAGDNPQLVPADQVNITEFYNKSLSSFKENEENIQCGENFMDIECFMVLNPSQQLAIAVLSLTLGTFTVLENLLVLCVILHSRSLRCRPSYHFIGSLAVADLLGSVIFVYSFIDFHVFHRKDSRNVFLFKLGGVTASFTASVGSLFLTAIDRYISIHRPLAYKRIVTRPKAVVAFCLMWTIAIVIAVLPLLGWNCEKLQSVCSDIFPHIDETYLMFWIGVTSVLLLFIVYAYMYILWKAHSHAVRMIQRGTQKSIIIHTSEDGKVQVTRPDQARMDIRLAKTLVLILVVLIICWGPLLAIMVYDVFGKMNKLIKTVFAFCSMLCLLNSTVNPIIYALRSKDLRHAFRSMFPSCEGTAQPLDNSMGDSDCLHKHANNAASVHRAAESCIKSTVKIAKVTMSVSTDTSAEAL
Sequence of 5-hydroxytryptamine receptor 2A (Homo sapiens) (P28223 whole entry): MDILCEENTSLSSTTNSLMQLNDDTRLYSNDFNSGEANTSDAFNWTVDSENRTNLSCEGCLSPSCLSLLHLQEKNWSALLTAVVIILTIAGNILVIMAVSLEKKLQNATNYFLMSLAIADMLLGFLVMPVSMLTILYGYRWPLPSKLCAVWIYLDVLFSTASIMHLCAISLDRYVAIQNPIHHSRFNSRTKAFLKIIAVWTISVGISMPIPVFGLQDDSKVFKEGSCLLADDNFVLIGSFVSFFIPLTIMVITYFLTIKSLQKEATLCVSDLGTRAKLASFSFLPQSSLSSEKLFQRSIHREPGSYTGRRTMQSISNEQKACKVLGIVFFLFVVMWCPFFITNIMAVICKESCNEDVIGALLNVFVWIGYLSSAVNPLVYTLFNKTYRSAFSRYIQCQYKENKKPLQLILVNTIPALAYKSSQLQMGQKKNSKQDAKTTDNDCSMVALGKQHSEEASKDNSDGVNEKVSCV
Sequence of Muscarinic acetylcholine receptor M3 (Homo sapiens) (P20309 whole entry, looked up): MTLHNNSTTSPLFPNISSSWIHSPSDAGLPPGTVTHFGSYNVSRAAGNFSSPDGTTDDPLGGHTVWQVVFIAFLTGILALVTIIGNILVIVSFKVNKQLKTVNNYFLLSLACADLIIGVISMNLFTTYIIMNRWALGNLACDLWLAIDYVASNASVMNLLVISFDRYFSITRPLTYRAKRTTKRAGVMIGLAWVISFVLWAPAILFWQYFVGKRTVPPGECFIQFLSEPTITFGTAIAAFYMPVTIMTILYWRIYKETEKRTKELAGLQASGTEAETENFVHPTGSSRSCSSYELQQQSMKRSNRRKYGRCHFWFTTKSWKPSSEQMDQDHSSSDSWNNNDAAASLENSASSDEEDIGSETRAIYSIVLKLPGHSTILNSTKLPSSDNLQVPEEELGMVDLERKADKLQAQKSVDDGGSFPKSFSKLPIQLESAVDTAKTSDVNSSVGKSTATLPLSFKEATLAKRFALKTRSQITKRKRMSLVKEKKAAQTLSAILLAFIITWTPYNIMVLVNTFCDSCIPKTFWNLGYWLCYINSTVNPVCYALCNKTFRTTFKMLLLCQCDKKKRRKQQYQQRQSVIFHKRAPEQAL

Compound	Activity [1]	Time [2] [h]	inhibition [3] [%]	Time [4] [h]	inhibition [5] [%]	Activity [6]	inhibition [7] [%]	ED50 [8] [mg/kg]	selectivity ratio [9]	Activity [10]	inhibition [11] [%]	inhibition [12] [%]	inhibition [13] [%]	inhibition [14] [%]	inhibition [15] [%]	selectivity ratio [16]	selectivity ratio [17]	Activity [18]	Activity [19]	ED50 [20] [mg/kg]	further results
Cc1ccccc1/C=C/C(=O)N[C@@H](C)CO	Non-Toxic	0.5	9.1	0.5	3	Non-Toxic	-5.8	58.4	2.86	Non-Toxic	-2	37.8	-8.2	10.3	81.2	> 19.4	2.57	Non-Toxic	Non-Toxic	24.6	inhibition [21]: -2.3%
CC(O)CNC(=O)/C=C/c1ccc(Cl)cc1 (stereo not drawn)	Non-Toxic	0.5	4.7	0.25	3.2	Non-Toxic	26	102	4.26	Non-Toxic	2.9	29.7	-4.6	12.2	23.4	6.47	1.76	Non-Toxic	Non-Toxic	56	inhibition [21]: 10.2%
CCC(CO)NC(=O)/C=C/c1ccc(Cl)cc1 (stereo not drawn)	Non-Toxic	1	11.5	0.5	6	Non-Toxic	11	90.3	3.41	Non-Toxic	1.5	57.6	-10	19.3	24.5	5.92	2.18	Non-Toxic	Non-Toxic	64.4	inhibition [21]: 28.4%
